Experimental data: patent US9737260B2, “Methods for determining total body skeletal muscle mass” (GLAXOSMITHKLINE LLC, priority 2011, dated 2017)

How the values were obtained:
[1] = rat, oral dose of 0.475 mg D3-creatine per rat
[2] = Dexamethasone-induced skeletal muscle atrophy in rats: lean body mass by QMR and creatine pool size by D3-creatine dilution; details: 22 week-old rats, once daily subcutaneous for 2 weeks; P<0.001 vs vehicle (459±45 g)

| SMILES | absorption of oral dose [1] | D3-creatine tracer dose available to equilibrate with the body creatine pool ([1]; minimal urinary spillage) [%] | lean body mass (LBM) [2] [g] |
| --- | --- | --- | --- |
| [2H]C([2H])([2H])N(CC(=O)O)C(=N)N [D3-creatine] | rapidly and completely absorbed | > 99 |  |
| C[C@@H]1C[C@H]2[C@@H]3CCC4=CC(=O)C=C[C@]4(C)[C@@]3(F)[C@@H](O)C[C@]2(C)[C@@]1(O)C(=O)CO [dexamethasone] |  |  | 353 ± 32 |
